From PubChem BioAssay (NCI)
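Briefly, cells in 96-well plates were exposed to five compound concentrations for 48 h, and endpoints were estimated by linear interpolation. Definition used: TGI = concentration required for complete inhibition of growth.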

Assays:
Test in all cases: growth of human tumour cells (NCI), 48 h
786-0 renal = test system: 786-0 renal
A498 renal = test system: A498 renal
A549 NSCLC = test system: A549 NSCLC
ACHN renal = test system: ACHN renal
CCRF-CEM leukemia = test system: CCRF-CEM leukemia
COLO 205 colon = test system: COLO 205 colon
DLD-1 colon = test system: DLD-1 colon
DMS 114 small cell lung = test system: DMS 114 small cell lung
DMS 273 small cell lung = test system: DMS 273 small cell lung
EKVX NSCLC = test system: EKVX NSCLC
HCC-2998 colon = test system: HCC-2998 colon
HCT-116 colon = test system: HCT-116 colon
HCT-15 colon = test system: HCT-15 colon
HL-60(TB) leukemia = test system: HL-60(TB) leukemia
HOP-18 NSCLC = test system: HOP-18 NSCLC
HOP-62 NSCLC = test system: HOP-62 NSCLC
HT29 colon = test system: HT29 colon
IGROV1 ovarian = test system: IGROV1 ovarian
K-562 leukemia = test system: K-562 leukemia
KM12 colon = test system: KM12 colon
KM20L2 colon = test system: KM20L2 colon
LOX IMVI melanoma = test system: LOX IMVI melanoma
LXFL 529 NSCLC = test system: LXFL 529 NSCLC
M14 melanoma = test system: M14 melanoma
M19-MEL melanoma = test system: M19-MEL melanoma
MALME-3M melanoma = test system: MALME-3M melanoma
MOLT-4 leukemia = test system: MOLT-4 leukemia
NCI-H226 lung = test system: NCI-H226 lung
NCI-H23 lung = test system: NCI-H23 lung
NCI-H460 lung = test system: NCI-H460 lung
NCI-H522 lung = test system: NCI-H522 lung
OVCAR-3 ovarian = test system: OVCAR-3 ovarian
OVCAR-4 ovarian = test system: OVCAR-4 ovarian
OVCAR-5 ovarian = test system: OVCAR-5 ovarian
OVCAR-8 ovarian = test system: OVCAR-8 ovarian
RPMI-8226 leukemia = test system: RPMI-8226 leukemia
RXF 393 renal = test system: RXF 393 renal
SF-268 CNS = test system: SF-268 CNS
SF-295 CNS = test system: SF-295 CNS
SF-539 CNS = test system: SF-539 CNS
SK-MEL-28 melanoma = test system: SK-MEL-28 melanoma
SK-MEL-5 melanoma = test system: SK-MEL-5 melanoma
SK-OV-3 ovarian = test system: SK-OV-3 ovarian
SN12C renal = test system: SN12C renal
SNB-19 CNS = test system: SNB-19 CNS
SNB-75 CNS = test system: SNB-75 CNS
SNB-78 CNS = test system: SNB-78 CNS
SR leukemia = test system: SR leukemia
SW-620 colon = test system: SW-620 colon
TK-10 renal = test system: TK-10 renal
U251 CNS = test system: U251 CNS
UACC-257 melanoma = test system: UACC-257 melanoma
UACC-62 melanoma = test system: UACC-62 melanoma
UO-31 renal = test system: UO-31 renal
XF 498 CNS = test system: XF 498 CNS

Measured: TGI

COc1ccccc1N=Nc1c(-c2ccccc2)nn(C(=O)CC(=O)Nc2ccccc2Cl)c1-c1ccccc1
> 100 µM: 786-0 renal | A498 renal | A549 NSCLC | ACHN renal | CCRF-CEM leukemia | COLO 205 colon | DLD-1 colon | DMS 114 small cell lung | DMS 273 small cell lung | EKVX NSCLC | HCC-2998 colon | HCT-116 colon | HCT-15 colon | HL-60(TB) leukemia | HOP-18 NSCLC | HOP-62 NSCLC | HT29 colon | IGROV1 ovarian | K-562 leukemia | KM12 colon | KM20L2 colon | LOX IMVI melanoma | LXFL 529 NSCLC | M14 melanoma | M19-MEL melanoma | MALME-3M melanoma | MOLT-4 leukemia | NCI-H226 lung | NCI-H23 lung | NCI-H460 lung | NCI-H522 lung | OVCAR-3 ovarian | OVCAR-4 ovarian | OVCAR-5 ovarian | OVCAR-8 ovarian | RPMI-8226 leukemia | RXF 393 renal | SF-268 CNS | SF-295 CNS | SF-539 CNS | SK-MEL-28 melanoma | SK-MEL-5 melanoma | SK-OV-3 ovarian | SN12C renal | SNB-19 CNS | SNB-75 CNS | SNB-78 CNS | SR leukemia | SW-620 colon | TK-10 renal | U251 CNS | UACC-257 melanoma | UACC-62 melanoma | UO-31 renal | XF 498 CNS
